The values below come from article PMC5619818, “Exploring Lactobacillus reuteri DSM20016 as a biocatalyst for transformation of longer chain 1,2-diols: Limits with microcompartment” (PLoS ONE, 2017).

Data set [1] concerns the target T1, PduQ (1,3-propanediol oxidoreductase) (Limosilactobacillus reuteri, UniProt A5VM99).
T1 construct: gene Lreu_1734
T1 sequence (A5VM99 1-373): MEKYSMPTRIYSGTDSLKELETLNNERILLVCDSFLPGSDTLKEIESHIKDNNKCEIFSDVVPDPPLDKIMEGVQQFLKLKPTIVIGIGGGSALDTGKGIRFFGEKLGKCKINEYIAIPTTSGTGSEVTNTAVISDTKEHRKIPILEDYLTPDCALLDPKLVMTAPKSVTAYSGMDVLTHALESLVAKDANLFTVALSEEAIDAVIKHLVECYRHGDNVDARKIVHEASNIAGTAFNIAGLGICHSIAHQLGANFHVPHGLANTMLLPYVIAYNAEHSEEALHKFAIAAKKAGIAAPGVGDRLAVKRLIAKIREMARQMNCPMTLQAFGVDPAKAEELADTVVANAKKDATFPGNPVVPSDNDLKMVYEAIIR
Briefly: NADH oxidation at […] nm. It is filed as biochemical. As to conditions: NADH 0.2 mM, 50 mM potassium phosphate pH 7.0; aldehyde reduction.

In data set [2] the target is T2, PduP (coenzyme-A acylating propionaldehyde dehydrogenase) (Limosilactobacillus reuteri, UniProt A5VMA0).
T2 construct: gene Lreu_1735
Briefly: NADH formation at […] nm. As to conditions: NAD+ 5 mM, HS-CoA 0.43 mM, 50 mM potassium phosphate pH 7.0, 1 mM DTT, 30 °C. Format: biochemical.

Substrate in the data set “purified protein”: O=CCCO
The experiment in a line: purified protein. Format: biochemical, Limosilactobacillus reuteri.

A word on the Km: it is the concentration of substrate that gives half-maximal velocity. As for `CCCCCCCC=O` [Octanaldehyde], the Km result in data set [1] and in data set [2] was “Pentanaldehyde (C5)< Hexanaldehyde (C6)< Octanaldehyde (C8)” throughout.
Regarding `CCCCCCCCCC=O` [Decylaldehyde], the Km entry in data set [1] and in data set [2] was “Hexanaldehyde (C6)< Octanaldehyde (C8)< Decylaldehyde (C10)” in each case.

B1: PduP (coenzyme-A acylating propionaldehyde dehydrogenase) (Limosilactobacillus reuteri subsp. reuteri) (protein)
chain: MQINDIESAVRKILAEELDNASSSSANVAATTDNGHRGIFTNVNDAIAAAKAAQEIYRDKPIAVRQQVIDAIKEGFRPYIEKMAKDIKEETGMGTVEAKIAKLNNALYNTPGPEILEPVVENGDGGMVMYERLPYGVIGAVGPSTNPSETVIANAIMMLAGGNTLYFGAHPGAKNVTRWTIEKMNDFIADATGLHNLVVSIETPTIESVQQMMKHPDIAMLAVTGGPAVVHQAMTSGKKAVGAGPGNPPAMVDATADIDLAAHNIITSASFDNDILCTAEKEVVAESSIKDELIRKMQDEGAFVVNREQADKLADMCIQENGAPDRKFVGKDATYILDQANIPYTGHPVEIICELPKEHPLVMTEMLMPILPVVSCPTFDDVLKTAVEVEKGNHHTATIHSNNLKHINNAAHRMQCSIFVVNGPSYVGTGVADNGAHSGASALTIATPTGEGTCTARTFTRRVRLNSPQGFSVRNWY
B1: the Km in the data set “purified protein” (NAD+ 5 mM, HS-CoA 0.43 mM, 50 mM potassium phosphate pH 7.0, 1 mM DTT, 30 °C) is listed as 10.1 mM.

B2: PduQ (1,3-propanediol oxidoreductase) (Limosilactobacillus reuteri subsp. reuteri) (protein)
chain: MEKYSMPTRIYSGTDSLKELETLNNERILLVCDSFLPGSDTLKEIESHIKDNNKCEIFSDVVPDPPLDKIMEGVQQFLKLKPTIVIGIGGGSALDTGKGIRFFGEKLGKCKINEYIAIPTTSGTGSEVTNTAVISDTKEHRKIPILEDYLTPDCALLDPKLVMTAPKSVTAYSGMDVLTHALESLVAKDANLFTVALSEEAIDAVIKHLVECYRHGDNVDARKIVHEASNIAGTAFNIAGLGICHSIAHQLGANFHVPHGLANTMLLPYVIAYNAEHSEEALHKFAIAAKKAGIAAPGVGDRLAVKRLIAKIREMARQMNCPMTLQAFGVDPAKAEELADTVVANAKKDATFPGNPVVPSDNDLKMVYEAIIR
As to B2, in “purified protein” (NADH 0.2 mM, 50 mM potassium phosphate pH 7.0, aldehyde reduction), the Km amounted to 28.7 mM.
